Reference: patent US9737582B2, “Method for improving memory of a subject using a composition comprising Cistanche and Ginkgo extracts” (Access Business Group International LLC, priority 2014, dated 2017)

Tests used:
Format in all cases: cell-based, murine
[1] = tested on: hippocampal cultures; test: Chronic treatment of hippocampal cultures on MEA neurochips, spontaneous network activity; conditions: chronic treatment 4-28 days in vitro; 30 μg/ml Cistanche, 300 nM Donepezil
From the text: Microelectrode array (MEA) neurochips were utilized to analyze various examples. Specifically, use of MEA neurochips enabled stimulation and recording of bioelectricity with high spatial and temporal resolution, to glean neuroactivity of the Cistanche and Ginkgo extracts, alone and in combination, and with neuronal growth factors.
MEA neurochips are available from NeuroProof GmbH of Rostock, Germany. The electrophysiological properties of compounds can be evaluated using their ability for induction of activity changes in neuronal networks grown on MEA neurochips. Routine monitoring of internal dynamics of mammalian neuronal networks is possible. […]
FIG. 8 illustrates examples of the study to assess chronic effects of Cistanche tubulosa extract on maturation of a neuronal network. […] At 28 days after repeated dose chronic treatment, spontaneous activity was measured, followed by recording of activity to acute NGF concentration-response curve. […]
Multichannel recording delivered single neuron spike data and spike identification and separation were accomplished with a template-matching algorithm in real time, to allow the extracellular recording of action potentials from 256 neurons simultaneously. The action potentials or “spikes” were recorded in spike trains and clustered in bursts, which can be quantitatively described via direct spike train analysis. […]

[2] = tested on: hippocampal cultures; test: Acute NGF concentration-response on chronically treated hippocampal cultures, MEA neurochips; conditions: acute mNGF 3 ng/ml to 1 μg/ml
Protocol: FIG. 8 illustrates examples of the study to assess chronic effects of Cistanche tubulosa extract on maturation of a neuronal network. Hippocampal cultures on MEA neurochips were treated with 30 μg/ml Cistanche, 300 nM Donepezil, or a dimethyl sulfoxide (“DMSO”) vehicle control. At 28 days after repeated dose chronic treatment, spontaneous activity was measured, followed by recording of activity to acute NGF concentration-response curve.
FIG. 19A is a first portion of a heat map and FIG. 19B is a second portion of the heat map. The heat map illustrates concentration dependent effects of acute mouse nerve growth factor (“mNGF”) on network activity of chronically treated hippocampal cultures with the mixtures or components described above for FIG. 18.
The heat map illustrates significant changes on the 60 most representative parameters for each mNGF concentration, from 3 ng/ml to 1 μg/ml. The color code changes in activity parameters according to the percent changes (100:no change), with yellow/red=an increase and green/blue=a decrease.

[3] = tested on: hippocampal network morphology; test: Immuno-histochemical analysis of recorded cultures, semi-automatic quantitative image analysis; conditions: chronic 4-28 days in vitro; 30 μg/ml Cistanche, 300 nM Donepezil
From the text: FIG. 5A is an example image associated with semi-automatic quantification of neurons/image, neurites/image, synapses/image, and synapse/neurite ratio. The image depicts color-merge of synapse (green), neurites (red), nuclei (blue), bar=50 μm.
FIG. 5B is an example image corresponding to synapse channel: color-inverted and analyzed for synapse particles (red labeled after automatic threshold, particle separation and size filter).
FIG. 9 illustrates examples of the study directed at immuno-histochemical analysis. Recorded cultures are further analyzed by immunocytochemistry, fluorescence microscopy and semi-automatic quantitative image analysis. Images are quantified per image for: cell number, neuronal number, neurite number, synapse number, % neurons, neurites per neuron, and synapses per neuron. […]
Recorded cultures were further analyzed by immunocytochemistry, fluorescent microscopy and quantitative image analysis for morphological findings. Semi-automatic quantification (mean±SEM, student's t-test: *p≦0.05; n=3 with 10-20 images each.)
FIG. 21 are images associated with semi-automatic quantification of total cells/field, percentage of neurons, neuritic density, and synaptic number/field. […] The rightmost images correspond to synapse channel: color inverted and analyzed for synapse particles.

Molecule | spontaneous network activity [1] | effect of chronic treatment on the acute NGF response ([2]; chronic 4-28 days in vitro, 30 μg/ml Cistanche, 300 nM Donepezil, mixture at 10 and 30 μg/ml) | global synapse number [3] | effect of acute NGF alone on general activity ([2]; vehicle-treated cultures)
COc1cc2c(cc1OC)C(=O)C(CC1CCN(Cc3ccccc3)CC1)C2 (stereo not shown) [Donepezil] | enhanced the spontaneous network activity | compensated the inhibitory acute NGF response | increase | 
NGF: mouse nerve growth factor applied acutely to cultures (protein, UniProt P01139 122-241, looked up, Beta-nerve growth factor, mouse nerve growth factor applied acutely to cultures) Beta-nerve growth factor: SSTHPVFHMGEFSVCDSVSVWVGDKTTATDIKGKEVTVLAEVNINNSVFRQYFFETKCRASNPVESGCRGIDSKHWNSYCTTTHTFVKALTTDEKQAAWRFIRIDTACVCVLSRKATRRG |  |  |  | inhibition of general activity
